Laboratory results taken from ChEMBL document CHEMBL1129110, “O-alkylcarboxylate oxime and N-hydroxyurea analogs of substituted indole leukotriene biosynthesis inhibitors” (Bioorg Med Chem Lett, 1996).
Active and inactive are the calls of the source. The rule behind the calls is not given here.

Columns and labels:
[1] = tested on: Rattus norvegicus; test: Compound was tested in vivo against rat anaphylaxis in the peritoneal cavity; type: functional
[2] = target: T1, 5-lipoxygenase/FLAP (Homo sapiens, UniProt P09917+P20292); test: (§1) Human whole blood was stimulated with calcium ionophore (A23187) and LTB 4 measured by enzyme immunoassay; type: functional, tissue-based
T1 sequence (P09917 whole entry): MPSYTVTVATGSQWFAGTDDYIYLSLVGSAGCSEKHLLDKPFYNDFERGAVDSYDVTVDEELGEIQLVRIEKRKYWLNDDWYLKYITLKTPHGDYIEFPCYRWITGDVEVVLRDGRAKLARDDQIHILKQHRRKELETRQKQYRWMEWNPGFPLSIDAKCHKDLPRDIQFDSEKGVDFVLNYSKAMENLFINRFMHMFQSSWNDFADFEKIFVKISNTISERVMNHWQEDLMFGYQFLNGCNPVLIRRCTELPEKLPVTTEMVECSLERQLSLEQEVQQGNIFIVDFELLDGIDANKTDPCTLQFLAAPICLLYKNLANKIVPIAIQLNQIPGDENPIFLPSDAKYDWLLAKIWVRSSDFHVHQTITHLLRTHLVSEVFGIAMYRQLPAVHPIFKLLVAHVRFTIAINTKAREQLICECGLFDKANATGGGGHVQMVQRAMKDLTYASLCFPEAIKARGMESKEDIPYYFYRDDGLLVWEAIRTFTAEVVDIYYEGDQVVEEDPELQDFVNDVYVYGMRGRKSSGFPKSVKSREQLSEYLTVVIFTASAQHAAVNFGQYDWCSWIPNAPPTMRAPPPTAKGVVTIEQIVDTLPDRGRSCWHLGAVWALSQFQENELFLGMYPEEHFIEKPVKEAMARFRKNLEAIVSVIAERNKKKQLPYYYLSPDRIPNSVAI
T1 sequence (P20292 whole entry): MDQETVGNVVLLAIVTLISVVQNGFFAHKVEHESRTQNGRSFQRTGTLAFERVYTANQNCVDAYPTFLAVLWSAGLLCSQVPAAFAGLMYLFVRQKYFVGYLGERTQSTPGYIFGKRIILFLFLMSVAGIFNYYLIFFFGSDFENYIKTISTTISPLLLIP

[3] = tested on: Rattus norvegicus; test: Compound was tested in vivo against rat anaphylaxis in the peritoneal cavity at concentration of 100 umol/kg; type: functional
[4] = target: T1, 5-lipoxygenase/FLAP; test: Inhibition of calcium ionophore (A23187) stimulated LTB4 formation in human neutrophils; type: functional
[5] = target: T2, Polyunsaturated fatty acid 5-lipoxygenase (Rattus norvegicus, UniProt P12527); test: Compound was tested for inhibition of 5-lipoxygenase activity in a broken cell supernatant rat basophilic leukemia cells
T2 sequence (P12527 whole entry): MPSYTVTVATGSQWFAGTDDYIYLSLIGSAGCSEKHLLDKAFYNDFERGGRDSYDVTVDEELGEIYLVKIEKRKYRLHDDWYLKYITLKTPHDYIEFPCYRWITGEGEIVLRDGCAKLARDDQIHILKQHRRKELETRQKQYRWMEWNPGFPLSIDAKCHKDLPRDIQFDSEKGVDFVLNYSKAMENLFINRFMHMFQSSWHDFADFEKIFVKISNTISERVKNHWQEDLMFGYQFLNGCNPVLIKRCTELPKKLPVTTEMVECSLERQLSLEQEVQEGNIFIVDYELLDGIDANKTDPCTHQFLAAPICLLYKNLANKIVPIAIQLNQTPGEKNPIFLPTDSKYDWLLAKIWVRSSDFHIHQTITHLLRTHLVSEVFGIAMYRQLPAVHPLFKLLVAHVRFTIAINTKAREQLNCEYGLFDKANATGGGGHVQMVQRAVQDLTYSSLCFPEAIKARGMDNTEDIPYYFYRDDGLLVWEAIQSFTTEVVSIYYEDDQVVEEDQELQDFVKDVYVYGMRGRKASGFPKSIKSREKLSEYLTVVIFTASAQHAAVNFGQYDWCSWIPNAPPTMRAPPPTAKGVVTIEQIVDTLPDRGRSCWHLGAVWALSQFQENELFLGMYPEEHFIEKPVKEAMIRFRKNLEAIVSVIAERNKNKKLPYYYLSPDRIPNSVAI

[6] = tested on: Rattus norvegicus; test: Compound was tested in vivo against rat anaphylaxis in the peritoneal cavity at concentration of 100 umol/kg; Not active; type: functional, organism-based
[7] = target: T2, Polyunsaturated fatty acid 5-lipoxygenase; test: Compound was tested for inhibition of 5-lipoxygenase activity in a broken cell supernatant rat basophilic leukemia cells at concentration of 50 uM; Not active
[8] = species on record: Homo sapiens; test: as §1; type: functional
[9] = tested on: Rattus norvegicus; test: Compound was tested in vivo against rat anaphylaxis in the peritoneal cavity at concentration of 1 umol/kg; type: functional
[10] = species on record: Homo sapiens; test: Compound was tested for inhibition of calcium ionophore (A23187) stimulated LTB4 formation in human neutrophils at 100 nM; type: functional
[11] = tested on: Rattus norvegicus; test: Compound was tested in vivo against rat anaphylaxis in the peritoneal cavity at 60 umol/kg; type: functional
[12] = tested on: Rattus norvegicus; test: Compound was tested in vivo against rat anaphylaxis in the peritoneal cavity; Not active; type: functional, organism-based
[13] = target: T2, Polyunsaturated fatty acid 5-lipoxygenase; test: Compound was tested for inhibition of 5-lipoxygenase activity in a broken cell supernatant rat basophilic leukemia cells at concentration of 32 uM; Not active

| SMILES | IC50 [2] [nM] | IC50 [4] [nM] | ED50 [1] [µmol/kg] | other results |
| --- | --- | --- | --- | --- |
| CC(C)c1ccc2c(c1)c(SC(C)(C)C)c(CC(C)(C)/C=N/O)n2Cc1ccc(Cl)cc1 | 2200 | 0.27 | – | inhibition in vivo at 100 µmol/kg [3]: 46% |
| CC(C)c1ccc2c(c1)c(SC(C)(C)C)c(CC(C)(C)CN(O)C(N)=O)n2Cc1ccc(Cl)cc1 | 1600 | 0.17 | 46 | IC50 [5]: 7500 nM |
| CC(C)(/C=N/OCC(=O)O)Cc1c(SC(C)(C)C)c2cc(OCc3ccc4ccccc4n3)ccc2n1Cc1ccc(Cl)cc1 | 600 | 12 | 0.24 | – |
| CC(C)(/C=N/OCC(=O)O)Cc1c(SC(C)(C)C)c2cc(OCc3cccc(Cl)n3)ccc2n1Cc1ccc(Cl)cc1 | 230 | 10 | 2.6 | – |
| CC(C)c1ccc2c(c1)c(SC(C)(C)C)c(CC(C)(C)/C=N/OCC(=O)O)n2Cc1ccc(Cl)cc1 | 680 | 0.1 | 3 | – |
| CC(C)c1ccc2c(c1)c(SC(C)(C)C)c(CC(C)(C)CNC(N)=O)n2Cc1ccc(Cl)cc1 | 970 | 0.18 | 11 | IC50 [7]: Not Active |
| CC(C)c1ccc2c(c1)c(SC(C)(C)C)c(CC(C)(C)NC(=O)N(C)O)n2Cc1ccc(Cl)cc1 | 1300 | 0.15 | – | inhibition in vivo at 60 µmol/kg [11]: 49%; IC50 [5]: 7500 nM |
| CO/N=C/C(C)(C)Cc1c(SC(C)(C)C)c2cc(C(C)C)ccc2n1Cc1ccc(Cl)cc1 | 11000 | 0.34 | – | ED50 [12]: inactive |
| CC(C)c1ccc2c(c1)c(SC(C)(C)C)c(CC(C)(C)C(=O)O)n2Cc1ccc(Cl)cc1 | 340 | 0.03 | 16 | IC50 [13]: Not Active |

The next lines start with results.

| IC50 [2] [nM] | IC50 [4] [nM] | SMILES | ED50 [1] [µmol/kg] | other results |
| --- | --- | --- | --- | --- |
| 50 | – | CC(C)(C)Sc1c(CC(C)(C)C(=O)O)n(Cc2ccc(Cl)cc2)c2ccc(OCc3ccccn3)cc12 | 0.16 | – |
| 600 | 13 | CC(C)(/C=N/OCC(=O)O)Cc1c(SC(C)(C)C)c2cc(OCc3ccccn3)ccc2n1Cc1ccc(Cl)cc1 | 0.12 | – |
| 110 | 17 | CC(C)(C)Sc1c(CC(C)(C)C(=O)O)n(Cc2ccc(Cl)cc2)c2ccc(OCc3cccc(Cl)n3)cc12 | 1.2 | – |
| 40 | 4 | CC(C)(C)Sc1c(CC(C)(C)C(=O)O)n(Cc2ccc(Cl)cc2)c2ccc(OCc3cscn3)cc12 | 1.8 | – |
| 200 | 8 | CC(C)(C)Sc1c(CC(C)(C)C(=O)O)n(Cc2ccc(Cl)cc2)c2ccc(OCc3ccc4ccccc4n3)cc12 [QUIFLAPON] | 1.6 | – |
| 4420 | 12 | CC(C)(C)Sc1c(CC(C)(C)C(=O)O)n(Cc2ccc(Cl)cc2)c2ccc(OCc3ccc4ccccc4c3)cc12 | – | ED50 [6]: inactive |
| – | 7 | CC(C)(C)Sc1c(CC(C)(C)C(=O)O)n(Cc2ccc(Cl)cc2)c2ccc(OCc3nccs3)cc12 | – | Inhibition [8]: 41%; inhibition in vivo at 1 µmol/kg [9]: 16% |
| 840 | – | CC(C)(C)Sc1c(CC(C)(C)C(=O)O)n(Cc2ccc(Cl)cc2)c2ccc(OCc3ccncc3)cc12 | – | inhibition at 0.1 µM [10]: 100%; ED50 [6]: inactive |
| 1090 | 17 | CC(C)(C)Sc1c(CC(C)(C)C(=O)O)n(Cc2ccc(Cl)cc2)c2ccc(OCc3cccnc3)cc12 | – | inhibition in vivo at 100 µmol/kg [3]: 4% |
| 180 | 11 | CC(C)(/C=N/OCC(=O)O)Cc1c(SC(C)(C)C)c2cc(OCc3cscn3)ccc2n1Cc1ccc(Cl)cc1 | 44 | – |
| 360 | 10 | CC(C)(C)Sc1c(CC(C)(C)C(=O)O)n(Cc2ccc(Cl)cc2)c2ccc(OCc3nc4ccccc4s3)cc12 | – | inhibition in vivo at 1 µmol/kg [9]: 71% |
